Earlier results as cited in patent publication US8420131B2, “Composition for obesity treatment” (priority 2011, dated 2013).

What was measured:
[1] = patients with PCOS
[2] = in vivo
[3] = in vivo; remark: listed apart in the source
[4] = sixty depressed patients, added to imipramine therapy
[5] = animal study
[6] = humans
[7] = test system: human white preadipocytes

In the case of `CC(/C=C/C=C(\C)C(=O)O[C@@H]1O[C@H](CO[C@@H]2O[C@H](CO)[C@@H](O)[C@H](O)[C@H]2O)[C@@H](O)[C@H](O)[C@H]1O)=C\C=C\C=C(C)\C=C\C=C(/C)C(=O)O[C@@H]1O[C@H](CO[C@@H]2O[C@H](CO)[C@@H](O)[C@H](O)[C@H]2O)[C@@H](O)[C@H](O)[C@H]1O` [crocin], the “inhibition of the effect of lipase” value (lipase) is given as “potently inhibit”.
In the case of `O[C@H]1[C@H](O)[C@@H](O)[C@H](O)[C@@H](O)[C@H]1O` [inositol], the “action of insulin / insulin sensitivity” value [1] is given as “increases the action of insulin”, the “decreasing the number of panic attacks, compared with fluvoxamine” value [2] is given as “superior” and the “symptoms of depressed patients” value [3] is given as “significant improvement”.
For `CC(/C=C/C=C(\C)C(=O)O)=C\C=C\C=C(C)\C=C\C=C(/C)C(=O)O` [crocetin], the “inhibition of the effect of lipase” value (lipase) is listed as “potently inhibit”, the “potency compared with orlistat” value (dose of 50 mg/kg versus orlistat at 10 mg/kg) is listed as “comparable” and the fat deposits (mice fed on a high fat diet) is listed as “significantly reduced”.
For `[Zn]` [zinc], the depression scores [4] is listed as “significantly reduced”.
For `[Mg+2]` [magnesium], the “effect compared with imipramine” value [5] is listed as “comparable” and the “effectiveness in treating depression compared with imipramine” value [6] is listed as “as effective as imipramine”.
In the case of `COc1ccc2cc3[n+](cc2c1OC)CCc1cc2c(cc1-3)OCO2` [berberine], the adipogenesis [7] is given as “inhibit adipogenesis”.
